Assay results reported in patent EP2149554A1, “Indolyamides as modulators for an EP2 receptor” (Bayer Schering Pharma Aktiengesellschaft, priority 2008, dated 2010).
pIC50: −log10 of the molar value.

Columns and labels:
Kumulus-Eizell Komplexe = assay: cumulus expansion test in vitro; format: cell-based, Mäusen (Stamm : CD1 (ICR)); conditions: competing with PGE2
From the text: Im prä-ovulatorischen antralen Follikel ist die Eizelle von Kumulus Zellen umgeben, die einen dichten Zellkranz um die Eizelle bilden. Nach dem LH-Peak (Lutenisierendes Hormon) wird eine Reihe von Prozessen aktiviert, die eine starke morphologische Veränderung dieses Zellkranzes aus Kumulus Zellen zur Folge hat. Hierbei bilden die Kumulus Zellen eine extrazelluläre Matrix, die zur sogenannten Kumulus Expansion führt (Vanderhyden et al. Dev Biol. 1990 Aug;140(2):307-317). Diese Kumulus Expansion ist ein wichtiger Bestandteil des ovulatorischen Prozesses und der nachfolgenden Möglichkeit zur Fertilisation. Bei der Kumulus Expansion sind Prostaglandine und hier das Prostaglandin E2, dessen Synthese durch den LH-Peak induziert wird, von entscheidender Bedeutung. Prostanoid EP2 Knock-out Mäuse (Hizaki et al. Proc Natl Acad Sci U S A. 1999 Aug 31 ;96(18):10501-6.) zeigen eine deutlich verminderte Kumulus Expansion und starke Subfertilität, was die Bedeutung des Prostanoid EP2-Rezeptors für diesen Prozess demonstriert.
2.2. Kumulus Expansions Test in vitro
In immaturen weiblichen Mäusen (Stamm : CD1 (ICR) von Charles River) wurde in einem Alter von 14 - 18 Tagen die Follikulogenese durch eine einmalige Gabe (intraperitoneal) von 10 I.E. PMSG (Pregnant Mare Serum Gonadotropine; Sigma G-4877, Lot 68H0909) induziert. […]

[1] = molecular target: T1, EP2-Subtyp des humanen PGE2-Rezeptors (Homo sapiens, UniProt P43116); assay: cAMP antagonism test (HTRF cAMP detection, in presence of PGE2); format: cell-based; conditions: cAMP Antagonismustest; PGE2 as agonist; read-out: Antagonismus [IC50
T1 construct: host or cells: cells in a culture plate
T1 sequence (P43116 whole entry): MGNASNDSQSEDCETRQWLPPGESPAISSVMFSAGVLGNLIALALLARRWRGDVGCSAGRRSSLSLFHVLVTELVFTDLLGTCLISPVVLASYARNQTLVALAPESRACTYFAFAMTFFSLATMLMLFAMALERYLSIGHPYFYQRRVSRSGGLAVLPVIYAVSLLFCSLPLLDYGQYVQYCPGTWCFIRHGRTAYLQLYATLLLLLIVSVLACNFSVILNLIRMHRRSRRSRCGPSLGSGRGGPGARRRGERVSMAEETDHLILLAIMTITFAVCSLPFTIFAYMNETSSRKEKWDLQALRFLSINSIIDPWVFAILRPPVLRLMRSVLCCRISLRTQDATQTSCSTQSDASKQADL
From the text: 1. Nachweis des Antagonismus des humanen Prostaglandin E2 (Subtyp EP2) Rezeptorsignals
(§1) Die Bindung von PGE2 an den EP2-Subtyp des humanen PGE2-Rezeptors induziert die Aktivierung membranständiger Adenylatzyklasen und führt zur Bildung von cAMP. In Gegenwart des Phosphodiesteraseinhibitors IBMX wird das durch diese Stimulation akkumulierte und mittels Zell-Lyse freigesetzte cAMP in einem kompetitiven Nachweisverfahren eingesetzt. In diesem Test konkurriert das cAMP im Lysat mit cAMP-XL665 um die Bindung eines Eu-Kryptat markierten Anti-cAMP Antikörpers.
(§2) Dabei entsteht in Abwesenheit von zellulärem cAMP ein maximales Signal, welches auf der Kopplung dieses Antikörpers an das cAMP-XL665 Molekül beruht. Dadurch entsteht nach Anregung bei 337 nm ein auf FRET (fluorescence resonance energy transfer) basierendes, langanhaltendes Emissionssignal bei 665 nm (und bei 620 nm). Beide Signale werden in einem geeigneten Messgerät zeitlich versetzt, d.h. nach Abklingen der Hintergrundsfluoreszenz gemessen. Jegliche Erhöhung des durch Prostglandin-E2-Gabe bedingten niedrigen FRET-Signals (gemessen als Well-Ratio-Veränderung = Emission665nm/Emission620nm * 10000) zeigt die Wirkung von Antagonisten.
1.2.1. Test auf Antagonismus (Angaben pro Vertiefung einer 384-Loch-Platte):
Die in einer Testplatte und 30 % DMSO vorgelegten Substanzlösungen (0.75 µl) wurden in 16 µl einer KRSB+IBMX-Stimulationslösung gelöst (1 X Krebs-Ringer Bicarbonate Buffer; Sigma-Aldrich # K-4002; inklusive 750 µM 3-Isobutyl-1-methylxanthine Sigma-Aldrich # I-7018), anschließend wurden 15 µl davon in eine medienfreie Zellkulturplatte überführt, die kurz zuvor mit KRSB gewaschen worden war.
Nach einer 30-minütigen Vorinkubation bei Raumtemperatur (RT) wurden 5 µl einer 4xPGE2 Lösung (11 nM) zugegeben und in Gegenwart des Agonisten für weitere 60 min bei RT inkubiert (Volumen: ∼ 20 µl), bevor die Reaktion anschließend durch Zugabe von 5 µl Lysispuffer gestoppt und für weitere 20 min bei RT inkubiert wird (Volumen: ∼ 25 µl). Das Zell-Lysat wurde anschließend in eine Messplatte überführt und entsprechend den Herstellerangaben (cyclic AMP kit Cisbio International # 62AMPPEC) gemessen.

[2] = molecular target: T1, EP2-Subtyp des humanen PGE2-Rezeptors; assay: cellular agonism test (HTRF cAMP detection, without PGE2); format: cell-based
From the text: as §1, §2
1.2.2. Test auf Agonismus (Angaben pro Vertiefung einer 384-Loch-Platte): […]

SMILES | pIC50 [1] | Unterdrückung der Kumulus Expansion (Kumulus-Eizell Komplexe; 100 - 200 µM) | Wirkung im zellulären Agonismustest [2] | Unterdrückung der Kumulus Expansion (Kumulus-Eizell Komplexe; 5 µM)
CC(C)Oc1ccc2c(=O)c3cc(C(=O)O)ccc3oc2c1 [AH 6809, reference compound] | – | ca. 30% | – | –
Cc1[nH]c2c(F)ccc(C)c2c1CCNC(=O)c1cc2ccc(C(=O)NCC(N)=O)cc2[nH]1 [Beispiel 6, 1H-Indol-2,6-dicarbonsäure 6-carbamoylmethyl-amid 2-{[2-(7-fluor-2,4-dimethyl-1H-indol-3-yl)-ethyl]-amid}] | 7.66 | – | keine Inhibition | ca. 67%

The next lines start with results.

pIC50 [1] | SMILES | Unterdrückung der Kumulus Expansion (Kumulus-Eizell Komplexe; 100 - 200 µM) | Wirkung im zellulären Agonismustest [2] | Unterdrückung der Kumulus Expansion (Kumulus-Eizell Komplexe; 5 µM)
6.53 | Cc1[nH]c2c(F)ccc(C)c2c1CCNC(=O)c1cc2cc(C(=O)NCCC(N)=O)ccc2[nH]1 [Beispiel 5, 1H-Indol-2,5-dicarbonsäure 5-[(2-carbamoyl-ethyl)-amid] 2-{[2-(7-fluor-2,4-dimethyl-1H-indol-3-yl)-ethyl]-amid}] | – | – | –
6.91 | Cc1[nH]c2c(F)ccc(C)c2c1CCNC(=O)c1cc2ccc(C(=O)NCC(C)(C)CO)cc2[nH]1 [Beispiel 8, 1H-Indol-2,6-dicarbonsäure 2-{[2-(7-fluor-2,4-dimethyl-1H-indol-3-yl)-ethyl]-amid} 6-[(3-hydroxy-2,2-dimethyl-propyl)-amid]] | – | – | –
7.34 | Cc1[nH]c2c(F)ccc(C)c2c1CCNC(=O)c1cc2ccc(C(=O)NCCC(N)=O)cc2[nH]1 [Beispiel 10, 1H-Indol-2,6-dicarbonsäure 6-[(2-carbamoyl-ethyl)-amid] 2-{[2-(7-fluor-2,4-dimethyl-1H-indol-3-yl)-ethyl]-amid}] | – | – | –
